Earlier results in US20160331866A1, “TISSUE REGENERATION MEMBRANE FOR REPAIR AND REGENERATION OF PERIPHERAL NERVE” (NATIONAL CHENG KUNG UNIVERSITY, priority 2015, published 2016).

Conditions: conventionally oral dose form

Row | concentration of the active ingredient in the blood | SMILES
1 | 20 ng/mL | CC(C)(O)c1ccccc1CC[C@@H](SCC1(CC(=O)O)CC1)c1cccc(/C=C/c2ccc3ccc(Cl)cc3n2)c1 [Montelukast]
2 | 832 to 1660 µM | CC(=O)Oc1ccccc1C(=O)O [aspirin, acetylsalicylic acid]
3 | 160 µM | COc1ccc2c(c1)c(CC(=O)O)c(C)n2C(=O)c1ccc(Cl)cc1 [Indomethacin]
4 | 8.46 to 25.38 µM | CC(c1cc2ccccc2s1)N(O)C(N)=O (stereo not shown) [Zileuton]
